Reference: patent US20130029928A1 (priority 2010, published 2013)
Read-outs that look alike come from different tables or passages of the source.

Test: Phase I study CXR1002-001: plasma pharmacokinetics (LC-MS/MS)
Type: in vivo, human
Details: human, plasma, oral; for concentration at 528 h / concentration at 528 hr: 528 hr (Day 23); for concentration at 696 h: 696 hr (Day 30); for concentration at 840 h: 840 hr (Day 36)
Description: PK samples, PD (fasting) samples, blood glucose, and blood triglyceride samples, were taken over a 6-week period.
Dose limiting toxicity (DLT) will be based on the toxicity assessments over the first 3-week period of the repeat dosing schedule. PK samples (single blood sample) were taken on the following basis: • Every 6 weeks during the repeat dosing phase • If dosing is interrupted or stopped, samples will be taken at intervals according to patient convenience • PK sampling for safety evaluation may take place at any time, as clinically indicated
Plasma samples were collected after the single 50 mg dose at the following timepoints: Pre-dose, and then 0.25, 0.5, 0.75, 1, 1.5, 2, 3, 4, 6, 24, 48, and 72 hours after administration and then once weekly at weeks 2, 3, 4, 5, and 6 (days 8, 15, 22, 29, and 36). For patients treated with the weekly repeat dose, plasma samples were collected at the following timepoints: Pre-dose and then 2, 3, 4 and 24 hours after administration for a total of 6 weeks. Thereafter a single sample was collected every 6 weeks for monitoring of exposure during long term treatment. Plasma samples were processed at site and stored at −80° C. prior to batch shipment to the analytical laboratory.

[1] = 100 mg, Patient 005 Dose 100 mg, read-out: Concentration
[2] = 100 mg, Patient 006 Dose 100 mg, read-out: Concentration
[3] = 100 mg, Patient 007 Dose 100 mg, read-out: Concentration
[4] = 200 mg, Patient 008 Dose 200 mg, read-out: Concentration
[5] = 200 mg, Patient 009 Dose 200 mg, read-out: Concentration

## O=C(O)C(F)(F)C(F)(F)C(F)(F)C(F)(F)C(F)(F)C(F)(F)C(F)(F)F [CXR1002]
100 mg, Patient 005 Dose 100 mg, 360 hr (Day 16), read-out: Concentration
  concentration at 360 h: 47.4 µM
100 mg, Patient 005 Dose 100 mg, 504 hr (Day 22), read-out: Concentration
  concentration at 504 h: 48.4 µM
100 mg, Patient 005 Dose 100 mg, 506 hr, read-out: Concentration
  concentration at 506 h: 84 µM
[1]
  concentration at 507 h: 74.4 µM
  concentration at 528 h: 57.9 µM
  concentration at 676 h: 82.7 µM
  concentration at 696 h: 78.8 µM
  concentration at 840 h: 99.4 µM
100 mg, Patient 005 Dose 100 mg, 508 hr, read-out: Concentration
  concentration at 508 h: 87.4 µM
100 mg, Patient 005 Dose 100 mg, 672 hr (Day 29), read-out: Concentration
  concentration at 672 h: 80.8 µM
100 mg, Patient 005 Dose 100 mg, 674 hr, read-out: Concentration
  concentration at 674 h: 99.7 µM
100 mg, Patient 005 Dose 100 mg, 675 hr, read-out: Concentration
  concentration at 675 h: 101 µM
100 mg, Patient 005 Dose 100 mg, 842 hr, read-out: Concentration
  concentration at 842 h: 80 µM
100 mg, Patient 005 Dose 100 mg, 843 hr, read-out: Concentration
  concentration at 843 h: 98.9 µM
100 mg, Patient 005 Dose 100 mg, 844 hr, read-out: Concentration
  concentration at 844 h: 91.4 µM
100 mg, Patient 005 Dose 100 mg, 864 hr (Day 37), read-out: Concentration
  concentration at 864 h: 109 µM
100 mg, Patient 005 Dose 100 mg, Day 92
  concentration at 92 day: 276 µM
100 mg, Patient 006 Dose 100 mg
  concentration at 0 h: 0.21 µM
[2]
  concentration at 2 h: 32.3 µM
  concentration at 3 h: 27.1 µM
  concentration at 170 h: 36.6 µM
  concentration at 338 h: 49.5 µM
  concentration at 339 h: 55.9 µM
  concentration at 507 hr: 83.8 µM
  concentration at 528 hr: 97 µM
  concentration at 696 h: 89.5 µM
  concentration at 840 h: 85.6 µM
100 mg, Patient 006 Dose 100 mg, 4 hr, read-out: Concentration
  concentration at 4 h: 24.6 µM
100 mg, Patient 006 Dose 100 mg, 24 hr (Day 2), read-out: Concentration
  concentration at 24 h: 28.2 µM
100 mg, Patient 006 Dose 100 mg, 168 hr (Day 8), read-out: Concentration
  concentration at 168 h: 26.2 µM
100 mg, Patient 006 Dose 100 mg, 171 hr, read-out: Concentration
  concentration at 171 hr: 41.1 µM
100 mg, Patient 006 Dose 100 mg, 172 hr, read-out: Concentration
  concentration at 172 hr: 47.5 µM
100 mg, Patient 006 Dose 100 mg, 192 hr (Day 9), read-out: Concentration
  concentration at 192 hr: 44.7 µM
100 mg, Patient 006 Dose 100 mg, 336 hr (Day 15), read-out: Concentration
  concentration at 336 h: 33.1 µM
100 mg, Patient 006 Dose 100 mg, 360 hr (Day 16), read-out: Concentration
  concentration at 360 h: 65.2 µM
100 mg, Patient 006 Dose 100 mg, 504 hr (Day 22), read-out: Concentration
  concentration at 504 h: 70.5 µM
100 mg, Patient 006 Dose 100 mg, 506 hr, read-out: Concentration
  concentration at 506 h: 76.4 µM
100 mg, Patient 006 Dose 100 mg, 672 hr (Day 29), read-out: Concentration
  concentration at 672 h: 86.9 µM
100 mg, Patient 006 Dose 100 mg, 674 hr, read-out: Concentration
  concentration at 674 h: 85.7 µM
100 mg, Patient 006 Dose 100 mg, 842 hr, read-out: Concentration
  concentration at 842 hr: 179 µM
100 mg, Patient 006 Dose 100 mg, 843 hr, read-out: Concentration
  concentration at 843 hr: 138 µM
100 mg, Patient 006 Dose 100 mg, 844 hr, read-out: Concentration
  concentration at 844 hr: 138 µM
100 mg, Patient 006 Dose 100 mg, 864 hr (Day 37), read-out: Concentration
  concentration at 864 hr: 123 µM
100 mg, Patient 007 Dose 100 mg
  concentration at 0 hr: 0 nM
[3]
  concentration at 2 hr: 30.9 µM
  concentration at 3 hr: 28.6 µM
  concentration at 338 hr: 52.8 µM
  concentration at 339 hr: 53.1 µM
  concentration at 507 hr: 65.8 µM
  concentration at 528 hr: 63.4 µM
100 mg, Patient 007 Dose 100 mg, 4 hr, read-out: Concentration
  concentration at 4 hr: 19.3 µM
100 mg, Patient 007 Dose 100 mg, 24 hr (Day 2), read-out: Concentration
  concentration at 24 hr: 17.3 µM
100 mg, Patient 007 Dose 100 mg, 168 hr (Day 8), read-out: Concentration
  concentration at 168 hr: 12.2 µM
100 mg, Patient 007 Dose 100 mg, 336 hr (Day 15), read-out: Concentration
  concentration at 336 hr: 19.2 µM
100 mg, Patient 007 Dose 100 mg, 340 hr, read-out: Concentration
  concentration at 340 hr: 55.8 µM
100 mg, Patient 007 Dose 100 mg, 360 hr (Day 16), read-out: Concentration
  concentration at 360 hr: 32 µM
100 mg, Patient 007 Dose 100 mg, 504 hr (Day 22), read-out: Concentration
  concentration at 504 hr: 39.7 µM
100 mg, Patient 007 Dose 100 mg, 506 hr, read-out: Concentration
  concentration at 506 hr: 53.1 µM
100 mg, Patient 007 Dose 100 mg, 508 hr, read-out: Concentration
  concentration at 508 hr: 73 µM
200 mg, Patient 008 Dose 200 mg
  concentration at 0 hr: 0 nM
[4]
  concentration at 2 hr: 114 µM
  concentration at 3 hr: 102 µM
  concentration at 170 h: 171 µM
  concentration at 338 hr: 147 µM
  concentration at 339 hr: 172 µM
  concentration at 507 h: 368 µM
  concentration at 528 h: 285 µM
  concentration at 676 h: 364 µM
  concentration at 696 h: 426 µM
  concentration at 840 h: 425 µM
200 mg, Patient 008 Dose 200 mg, 4 hr, read-out: Concentration
  concentration at 4 h: 81 µM
200 mg, Patient 008 Dose 200 mg, 24 hr (Day 2), read-out: Concentration
  concentration at 24 h: 70.4 µM
200 mg, Patient 008 Dose 200 mg, 168 hr (Day 8), read-out: Concentration
  concentration at 168 h: 64.6 µM
200 mg, Patient 008 Dose 200 mg, 171 hr, read-out: Concentration
  concentration at 171 h: 143 µM
200 mg, Patient 008 Dose 200 mg, 172 hr, read-out: Concentration
  concentration at 172 h: 130 µM
200 mg, Patient 008 Dose 200 mg, 192 hr (Day 9), read-out: Concentration
  concentration at 192 h: 110 µM
200 mg, Patient 008 Dose 200 mg, 336 hr (Day 15), read-out: Concentration
  concentration at 336 hr: 124 µM
200 mg, Patient 008 Dose 200 mg, 340 hr, read-out: Concentration
  concentration at 340 h: 192 µM
200 mg, Patient 008 Dose 200 mg, 360 hr (Day 16), read-out: Concentration
  concentration at 360 h: 211 µM
200 mg, Patient 008 Dose 200 mg, 504 hr (Day 22), read-out: Concentration
  concentration at 504 h: 277 µM
200 mg, Patient 008 Dose 200 mg, 506 hr, read-out: Concentration
  concentration at 506 h: 282 µM
200 mg, Patient 008 Dose 200 mg, 508 hr, read-out: Concentration
  concentration at 508 h: 281 µM
200 mg, Patient 008 Dose 200 mg, 672 hr (Day 29), read-out: Concentration
  concentration at 672 hr: 337 µM
200 mg, Patient 008 Dose 200 mg, 674 hr, read-out: Concentration
  concentration at 674 hr: 356 µM
200 mg, Patient 008 Dose 200 mg, 675 hr, read-out: Concentration
  concentration at 675 hr: 321 µM
200 mg, Patient 008 Dose 200 mg, 842 hr, read-out: Concentration
  concentration at 842 h: 361 µM
200 mg, Patient 008 Dose 200 mg, 843 hr, read-out: Concentration
  concentration at 843 h: 397 µM
200 mg, Patient 008 Dose 200 mg, 844 hr, read-out: Concentration
  concentration at 844 h: 414 µM
200 mg, Patient 008 Dose 200 mg, 864 hr (Day 37), read-out: Concentration
  concentration at 864 h: 354 µM
200 mg, Patient 009 Dose 200 mg
  concentration at 0 h: 0 µM
[5]
  concentration at 2 h: 93.4 µM
  concentration at 3 h: 61.2 µM
  concentration at 170 h: 149 µM
  concentration at 338 h: 161 µM
  concentration at 339 h: 167 µM
  concentration at 507 h: 296 µM
  concentration at 528 h: 242 µM
  concentration at 676 h: 358 µM
  concentration at 696 h: 338 µM
  concentration at 840 h: 399 µM
200 mg, Patient 009 Dose 200 mg, 4 hr, read-out: Concentration
  concentration at 4 h: 71.1 µM
200 mg, Patient 009 Dose 200 mg, 24 hr (Day 2), read-out: Concentration
  concentration at 24 h: 64.6 µM
200 mg, Patient 009 Dose 200 mg, 168 hr (Day 8), read-out: Concentration
  concentration at 168 h: 60.1 µM
200 mg, Patient 009 Dose 200 mg, 171 hr, read-out: Concentration
  concentration at 171 h: 170 µM
200 mg, Patient 009 Dose 200 mg, 172 hr, read-out: Concentration
  concentration at 172 h: 139 µM
200 mg, Patient 009 Dose 200 mg, 192 hr (Day 9), read-out: Concentration
  concentration at 192 h: 136 µM
200 mg, Patient 009 Dose 200 mg, 340 hr, read-out: Concentration
  concentration at 340 h: 153 µM
200 mg, Patient 009 Dose 200 mg, 360 hr (Day 16), read-out: Concentration
  concentration at 360 h: 218 µM
200 mg, Patient 009 Dose 200 mg, 504 hr (Day 22), read-out: Concentration
  concentration at 504 h: 253 µM
200 mg, Patient 009 Dose 200 mg, 506 hr, read-out: Concentration
  concentration at 506 h: 285 µM
200 mg, Patient 009 Dose 200 mg, 508 hr, read-out: Concentration
  concentration at 508 h: 362 µM
200 mg, Patient 009 Dose 200 mg, 672 hr (Day 29), read-out: Concentration
  concentration at 672 h: 251 µM
200 mg, Patient 009 Dose 200 mg, 674 hr, read-out: Concentration
  concentration at 674 h: 472 µM
200 mg, Patient 009 Dose 200 mg, 675 hr, read-out: Concentration
  concentration at 675 h: 261 µM
200 mg, Patient 009 Dose 200 mg, 842 hr, read-out: Concentration
  concentration at 842 h: 346 µM
